Measured values reported in patent US20110136727A1, “Compositions and methods for rapid selection of pathogen binding agents” (priority 2009, published 2011).
Where a SMILES comes first, the peptide text is derived from it. Where no end group is shown, it is not given here.

System: LPS
Assay: not given
Details: Morales et al., 2009; cited from earlier work

| Compound | Binding to the bacteria and to LPS |
| --- | --- |
| EFSNPTAQVFPDFWMSDGSC [NEG-1, negative control peptide, reference compound] | bind neither to the bacteria nor to LPS |

System: not listed separately
Assay: Serum stability (serum incubation and western blot)
Type: in vitro ADME, human
Details: fresh human serum, 37° C., pH=7.4, starting concentration 10 μM, western blot
Method: Serum stability of Construct 1. Over the last decade, there was a considerable interest in developing antimicrobial peptides as intravenously administered antibiotics. In this respect, a common criticism of peptide-based drugs has been their susceptibility to endogenous proteases. […] To test the in vitro stability of Construct 1 we used a serum-incubation and western blot analysis. Construct 1 was incubated in fresh human serum at 37° C. and pH=7.4 with a starting concentration of 10 μM. Samples were withdrawn at predetermined time points and each sample diluted 20-fold with loading buffer prior to analysis by western blot (FIG. 7).

| Compound | Time for which proteolysis was resisted |
| --- | --- |
| Construct 1: tetravalent mPEG-maleimide (MW 20 kDa) conjugated with QF8 peptide (HRKPKFRHHHFKWKHWKGSC; also: conjugated with tetravalent 20 kDa mPEG-maleimide) | more than 8 hours |

Same assay, conditions: human serum, western blot probed with Streptavidin-AlexaFluor 647 (FIG. 7)

| Compound | Degradation in human serum, monomeric peptide vs tetravalent PEG scaffold |
| --- | --- |
| N=C(N)NCCC[C@H](NC(=O)[C@H](Cc1ccccc1)NC(=O)[C@H](CCCCN)NC(=O)[C@@H]1CCCN1C(=O)[C@H](CCCCN)NC(=O)[C@H](CCCNC(=N)N)NC(=O)[C@@H](N)Cc1c[nH]cn1)C(=O)N[C@@H](Cc1c[nH]cn1)C(=O)N[C@@H](Cc1c[nH]cn1)C(=O)N[C@@H](Cc1c[nH]cn1)C(=O)N[C@@H](Cc1ccccc1)C(=O)N[C@@H](CCCCN)C(=O)N[C@@H](Cc1c[nH]c2ccccc12)C(=O)N[C@@H](CCCCN)C(=O)N[C@@H](Cc1c[nH]cn1)C(=O)N[C@@H](Cc1c[nH]c2ccccc12)C(=O)N[C@@H](CCCCN)C(=O)NCC(=O)N[C@@H](CO)C(=O)N[C@@H](CS)C(=O)O [SEQ ID NO: 33] (H-HRKPKFRHHHFKWKHWKGSC-OH; N-terminus and C-terminus assumed) | degraded much faster |
| Construct 1: tetravalent mPEG-maleimide (MW 20 kDa) conjugated with QF8 peptide (HRKPKFRHHHFKWKHWKGSC; also: conjugated with tetravalent 20 kDa mPEG-maleimide) | prolonged the half-life |

System: E. coli O111:B4
Assay: LPS competition assay on random-sequence peptide microarray (binding of fluorescently labeled bacteria with and without excess free LPS)
Details: fluorescent intensity of SYTO 9 labeled E. coli O111:B4 binding to the arrayed peptide without vs with excess non-labeled LPS of the same strain
Method: FIG. 2. Schematic representation of the bacterial binding assay. PEG3,400 linker modified random sequence peptide microarrays were incubated (FIG. 2A) with fluorescently labeled bacteria and (FIG. 2B) with bacteria in presence of excess free LPS.
Microarray screening. Aliquots of the bacterial cultures were centrifuged to isolate the cells and were washed twice with an equal volume of PBS buffer (pH 7.2). After each wash, bacteria were resuspended and centrifuged. Cells were fluorescently stained with SYTO 9 green-fluorescent cell-permeable nucleic acid dye (Molecular Probes, Eugene, Oreg.). Dye was added to a 500 microliter suspension of bacteria at a concentration of 20 μM in PBS buffer and shaken for 1 hr at 37 degrees Centigrade. After incubation, the cell suspension was centrifuged, isolated, and washed twice with 1 ml PBS buffer. […] Each array was equipped with an Agilent hybridization chamber, and then 450 microliter solution of E. coli in PBS buffer supplemented with 0.03% FBS was added. The arrays were gently shaken on a platform for 1 hr at 37 degrees Centigrade temperature. After incubation, the hybridization chamber was removed, and unbound cells were washed away from the array by dipping it into a 50 ml solution of the hybridization buffer. This step was repeated twice, and the buffer was changed between washings. A final wash with nanopure water was used to remove salts from the array. Slides were then briefly centrifuged at 1500 rpm for 2 min to dry the arrays.
Data analysis. The arrays were scanned using a laser scanner (PERKIN-ELMER PROSCANARRAY HT) and quantified using GENEPIX PRO6.0 (Molecular Devices, Inc.) in order to determine the fluorescence intensity of each probe and identify its corresponding peptide sequence. A statistical comparison of microarray data was done with GENESPRING GX 7.3 (AGILENT, INC, Palo Alto, Calif., USA) by importing the image-processed data from GENEPIX PRO6.0. Median signal intensities were used in the calculations. For statistical comparisons, each slide was normalized to 50th percentile. Also, measurements of less than 0.01 were set to 0.01. Results were represented on a heatmap in order to be able to compare the difference in intensities with and without excess LPS.
LPS competition assay. Since approximately 90% of bacterial surface is comprised of LPS it was expected that bacteria will bind to random peptide microarray mostly through LPS. […] Same number of cells stained with SYTO-9® was used to probe the microarrays with and without excess non-labeled LPS from the same strain (FIG. 2).

| Compound | Ratio ECO/(ECO + LPS) |
| --- | --- |
| 40 (KHKWWRWHKWHWWFRKHGSC) [compound 40] | 2.322 |
| 21 (RWQKKVKMKRDHVYFRMGSC) [compound 21] | 3.526 |
| 52 (RPKPHRHWKPKFPHHHWGSC) [compound 52] | 2.031 |
| 10 (HPWWWHHKKRRHHKHKKGSC) [compound 10] | 5.345 |
| 51 (HRKWHWPWKWPWKRKRWGSC) [compound 51] | 2.033 |
| 5 (WKKKRKHRHKKHWHPWRGSC) [compound 5] | 10.3 |
| 48 (HKWHRKKFHKHRFKHHKGSC) [compound 48] | 2.112 |
| 24 (HKRHKKHFKFFRWHRKWGSC) [compound 24] | 3.428 |
| 16 (KHPFWHPHRRHKKKRWFGSC) [compound 16] | 4.283 |
| 20 (HHWWRKRRRKRHRKHWKGSC) [compound 20] | 3.527 |
| 38 (WWHHKWFKHKKFWRHKFGSC) [compound 38] | 2.349 |
| 13 (WHRKFFRWRFHRHKKHKGSC) [compound 13] | 4.547 |
| 7 (WKRPWHRWHPKRRKWRHGSC) [compound 7] | 9.611 |
| 47 (FHKKRHFKRRHKFWWWRGSC) [compound 47] | 2.114 |
| 19 (PWKFHRHWHHHKHWKWKGSC) [compound 19] | 3.644 |
| 37 (RWRRHKHFKRPHRKHKRGSC) [compound 37] | 2.375 |
| 11 (PWWKWRKRKHPKKHHKRGSC) [compound 11] | 4.687 |
| 6 (RHWRKPRKWHKKWPPHRGSC) [compound 6] | 9.881 |
| 26 (RTYWNYGIMRHNKTRKGGSC) [compound 26] | 3.331 |
| 9 (HFRKWHKRRWKHHKKWKGSC) [compound 9] | 8.435 |
| 15 (KKFHPHFKPWHFRHKKPGSC) [compound 15] | 4.303 |
| 23 (HHHHKRKHFWRPRHPRKGSC) [compound 23] | 3.493 |
| 14 (HRKRPKRHHKRHWPRWKGSC) [compound 14] | 4.429 |
| 2 (HWKRRHKHKWPKRHPHKGSC) [compound 2] | 13.22 |
| 53 (WRRSTPVGPWTWFGKFLGSC) [compound 53] | 1.974 |
| 17 (WHHKWRFWKHFRHKRHFGSC) [compound 17] | 4.216 |
| 46 (RHWRPKFRKFRWWRWHHGSC) [compound 46] | 2.125 |

| Compound | Ratio ECO/(ECO + LPS) |
| --- | --- |
| 12 (WKWKRHWKWPHRRKHFFGSC) [compound 12] | 4.576 |
| 45 (RKRKWHHPWHWRRKRRWGSC) [compound 45] | 2.136 |
| 27 (WHWHHWKHKKRRHHWRRGSC) [compound 27] | 3.261 |
| 4 (HFHHWKWKHHHHRHRRFGSC) [compound 4] | 11.28 |
| 8 (WHHWFHHKKKKPWWKKKGSC) [compound 8] | 8.832 |
| 50 (EPKLWFKPRRGGYRHRHGSC) [compound 50] | 2.035 |
| 1 (WWRRKKWHKHKRKHPRFGSC) [compound 1] | 18.76 |
| 32 (WKFRHRHHRHHWHKKWKGSC) [compound 32] | 2.844 |
| 33 (HRKPKFRHHHFKWKHWKGSC) [compound 33] | 2.786 |
| 54 (RRFRHWWRWRKRRRKWRGSC) [compound 54] | 1.914 |
| 31 (HWHHRWWHHWKHPHHWRGSC) [compound 31] | 2.854 |
| 18 (SIADIHKRKFRVRRKHIGSC) [compound 18] | 4.04 |
| 39 (WKPWFHPRKHHKWRHWHGSC) [compound 39] | 2.334 |
| 35 (HRWWFKKKHRFRWWKRWGSC) [compound 35] | 2.404 |
| 29 (RKHHKKPHKRKRWKWWPGSC) [compound 29] | 3.021 |
| 34 (RRWWRKRFWHHRWHRRKGSC) [compound 34] | 2.423 |
| 25 (TKRIHKWPQDAYRIRRGGSC) [compound 25] | 3.355 |
| 36 (RFFFHKWRRWRRRKPPRGSC) [compound 36] | 2.378 |
| 3 (HWKRHHRPKHKHHRHKHGSC) [compound 3] | 11.48 |
| 41 (KWKHHKKFRKRKRHWFHGSC) [compound 41] | 2.316 |
| 43 (WRFKHFRWKRFKHHHKKGSC) [compound 43] | 2.263 |
| 49 (WFWKHKKWRRHPRKWHWGSC) [compound 49] | 2.104 |
| 42 (HWHPRWHKHKFKHWRWHGSC) [compound 42] | 2.273 |
| 30 (RFHWKHRRKWKHHHPRRGSC) [compound 30] | 2.944 |
| 22 (RWFPKKHHHRWRKWWKKGSC) [compound 22] | 3.506 |
| 28 (KHWHWHKRKKHHRKFFWGSC) [compound 28] | 3.0313 |
| 44 (IYNKRSQVRRKGFKKKYGSC) [compound 44] | 2.169 |

System: E. coli O111:B4
Assay: In vitro growth inhibition assay (turbidity at 600 nm)
Type: cell-based
Details: added at mid-logarithmic phase, QF8 at 25 micrometers, NEG-1 at 100 micrometers, Construct 1 at 7, 10, and 25 micrometers, vs untreated bacteria
Method: FIG. 6. Bacterial growth inhibition assays in presence of (a) growth media; (b) negative control peptide NEG1 at 100 micromolar; (c) 25 micromolar peptide QF8 (SEQ ID NO: 33 Table 2); (d) 7 micrommolar QF8-PEG Construct 1; (e) 10 micromolar QF8-PEG Construct 1; (f) 17.5 micromolar QF8-PEG construct 1; (g) 25 micromolar QF8-PEG Construct 1; (h) 100 IU penicillin/streptomycin as a positive control.
In vitro growth inhibition assays. Growth of E. coli O111:B4 was assessed in the presence of different concentrations of NEG-1, QF8, and Construct 1 using turbidity at 600 nm. […]
In vitro inhibition assays. […] Growth was monitored as turbidity at 600 nm. Experiments were performed at 30 degrees Centigrade in microtiter plates with 100 microliters of culture using a Spectra Max Plus microtiter plate reader with Soft Max Pro Software (Molecular devices). The turbidity was measured every 5 minutes and the plate was shaken for 30 seconds before each measurement. Bacteria concentration was calculated according to the McFarland general method using the absorbance at 600 nm of a series of mixtures of 1% barium chloride and 1% sulfuric acid.

| Compound | Growth of E. coli O111:B4 (growth curves, bacterial count) |
| --- | --- |
| EFSNPTAQVFPDFWMSDGSC [NEG-1, negative control peptide, reference compound] | no changes |
| Construct 1: tetravalent mPEG-maleimide (MW 20 kDa) conjugated with QF8 peptide (HRKPKFRHHHFKWKHWKGSC; also: conjugated with tetravalent 20 kDa mPEG-maleimide) | dramatic decrease in bacterial count |
